Laboratory results from ChEMBL document CHEMBL4359852, “Design, synthesis and biological evaluation of novel 5-(piperazin-1-yl)quinolin-2(1H)-one derivatives as potential chitin synthase inhibitors and antifungal agents” (Eur J Med Chem, 2019).
Converted amounts (≈) assume the structure as drawn.

How the values were obtained:
Aspergillus flavus = test: Antifungal activity against Aspergillus flavus ATCC 16870 assessed as reduction in fungal cell growth incubated for 48 hrs by two-fold serial dilution method; assay type: functional; conditions: ATCC 16870, 48 h
[1] = Inhibition of Saccharomyces cerevisiae CGMCC 2.145 chitin synthase using GlcNAc and UDP-GlcNAc as substrate incubated for 60 mins by microplate reader analysis
Pseudomonas aeruginosa = test: Antibacterial activity against Pseudomonas aeruginosa ATCC 9027 assessed as reduction in bacterial cell growth incubated for overnight by two-fold serial dilution method; assay type: functional
Proteus vulgaris = test: Antibacterial activity against Bacillus proteus ATCC 8427 assessed as reduction in bacterial cell growth incubated for overnight by two-fold serial dilution method; assay type: functional
Staphylococcus aureus [2] = test: Antibacterial activity against Staphylococcus aureus ATCC 25923 assessed as reduction in bacterial cell growth incubated for overnight by two-fold serial dilution method; assay type: functional
Candida albicans = test: Antifungal activity against Candida albicans ATCC 76615 assessed as reduction in fungal cell growth incubated for 48 hrs by two-fold serial dilution method; assay type: functional; conditions: ATCC 76615, 48 h
Staphylococcus aureus [3] = test: Antibacterial activity against methicillin resistant Staphylococcus aureus N 315 assessed as reduction in bacterial cell growth incubated for overnight by two-fold serial dilution method; assay type: functional
Escherichia coli = test: Antibacterial activity against Escherichia coli JM109 assessed as reduction in bacterial cell growth incubated for overnight by two-fold serial dilution method; assay type: functional
Bacillus subtilis = test: Antibacterial activity against Bacillus subtilis ATCC 6633 assessed as reduction in bacterial cell growth incubated for overnight by two-fold serial dilution method; assay type: functional
Cryptococcus neoformans = test: Antifungal activity against Cryptococcus neoformans ATCC 32719 assessed as reduction in fungal cell growth incubated for 48 hrs by two-fold serial dilution method; assay type: functional; conditions: ATCC 32719, 48 h
Saccharomyces cerevisiae = test: Inhibition of Saccharomyces cerevisiae CGMCC 2.145 chitin synthase using GlcNAc and UDP-GlcNAc as substrate at 300 ug/ml incubated for 60 mins by microplate reader analysis relative to control

Row | SMILES | MIC (Aspergillus flavus) | IC50 [1] | MIC (Pseudomonas aeruginosa) | MIC (Proteus vulgaris) | MIC (Staphylococcus aureus [2]) | MIC (Candida albicans) | MIC (Staphylococcus aureus [3]) | MIC (Escherichia coli) | MIC (Bacillus subtilis) | MIC (Cryptococcus neoformans) | inhibition (Saccharomyces cerevisiae)
1 | Cl.O=C1CCc2c(cccc2N2CCN(C[C@@H](O)CNc3ccc(Br)cc3)CC2)N1 | 128 µg/mL | 350 µM | 128 µg/mL | 128 µg/mL | 64 µg/mL | 64 µg/mL | 128 µg/mL | 256 µg/mL | 64 µg/mL | 128 µg/mL | 
2 | Cl.O=C1CCc2c(cccc2N2CCN(C[C@@H](O)CNc3ccccc3)CC2)N1 | 128 µg/mL | 190 µM | 128 µg/mL | 256 µg/mL | 128 µg/mL | 128 µg/mL | 128 µg/mL | 128 µg/mL | 128 µg/mL | 128 µg/mL | 
3 | Cl.O=C1CCc2c(cccc2N2CCN(C[C@H](O)CNc3ccccc3)CC2)N1 | 128 µg/mL | 170 µM | 256 µg/mL | 128 µg/mL | 256 µg/mL | 64 µg/mL | 128 µg/mL | 256 µg/mL | 256 µg/mL | 256 µg/mL | 
4 | Cl.O=C1CCc2c(cccc2N2CCN(C[C@H](O)CNc3ccc(Cl)cc3)CC2)N1 | 128 µg/mL | 380 µM | 256 µg/mL | 128 µg/mL | 128 µg/mL | 32 µg/mL | 128 µg/mL | 128 µg/mL | 128 µg/mL | 256 µg/mL | 
5 | CCCCNC[C@@H](O)CN1CCN(c2cccc3c2CCC(=O)N3)CC1.Cl | 256 µg/mL | 310 µM | 256 µg/mL | 256 µg/mL | 256 µg/mL | 128 µg/mL | 256 µg/mL | 256 µg/mL | 256 µg/mL | 128 µg/mL | 
6 | CCCCNC[C@H](O)CN1CCN(c2cccc3c2CCC(=O)N3)CC1.Cl | 512 µg/mL | 340 µM | 128 µg/mL | 256 µg/mL | 256 µg/mL | 64 µg/mL | 256 µg/mL | 128 µg/mL | 512 µg/mL | 256 µg/mL | 
7 | Cl.O=C1CCc2c(cccc2N2CCN(C[C@@H](O)CNc3ccc(Cl)cc3)CC2)N1 | 128 µg/mL | 360 µM | 256 µg/mL | 128 µg/mL | 64 µg/mL | 32 µg/mL | 64 µg/mL | 128 µg/mL | 64 µg/mL | 128 µg/mL | 
8 | Cl.O=C1CCc2c(cccc2N2CCN(C[C@H](O)CNc3ccc(Br)cc3)CC2)N1 | 64 µg/mL | 330 µM | 128 µg/mL | 256 µg/mL | 64 µg/mL | 128 µg/mL | 64 µg/mL | 128 µg/mL | 128 µg/mL | 128 µg/mL | 
9 | COc1ccc(NC[C@H](O)CN2CCN(c3cccc4c3CCC(=O)N4)CC2)cc1.Cl | 128 µg/mL | 120 µM | 128 µg/mL | 256 µg/mL | 64 µg/mL | 32 µg/mL | 128 µg/mL | 32 µg/mL | 256 µg/mL | 256 µg/mL | 
10 | Cl.O=C1CCc2c(cccc2N2CCN(CC(O)Cn3ccnc3)CC2)N1 (racemic) | 256 µg/mL | 470 µM | 128 µg/mL | 128 µg/mL | 64 µg/mL | 64 µg/mL | 128 µg/mL | 128 µg/mL | 64 µg/mL | 256 µg/mL | 53.3%
11 | Cl.O=C1CCc2c(cccc2N2CCN(CC(O)CNc3ccccc3)CC2)N1 (racemic) | 128 µg/mL | 150 µM | 256 µg/mL | 128 µg/mL | 128 µg/mL | 64 µg/mL | 128 µg/mL | 256 µg/mL | 128 µg/mL | 128 µg/mL | 62.7%
12 | Cl.O=C1CCc2c(cccc2N2CCN(CC(O)CNc3ccccc3Cl)CC2)N1 (racemic) | 128 µg/mL | 470 µM | 256 µg/mL | 64 µg/mL | 64 µg/mL | 32 µg/mL | 128 µg/mL | 128 µg/mL | 128 µg/mL | 512 µg/mL | 52.4%
13 | Cl.O=C1CCc2c(cccc2N2CCN(CC(O)CNc3ccc(Cl)cc3)CC2)N1 (racemic) | 256 µg/mL | 360 µM | 128 µg/mL | 128 µg/mL | 64 µg/mL | 32 µg/mL | 64 µg/mL | 128 µg/mL | 64 µg/mL | 256 µg/mL | 59.3%
14 | Cl.O=C1CCc2c(cccc2N2CCN(CC(O)CNc3ccc(Br)cc3)CC2)N1 (racemic) | 64 µg/mL | 380 µM | 256 µg/mL | 128 µg/mL | 64 µg/mL | 64 µg/mL | 128 µg/mL | 256 µg/mL | 64 µg/mL | 256 µg/mL | 55.4%
15 | COc1ccc(NCC(O)CN2CCN(c3cccc4c3CCC(=O)N4)CC2)cc1.Cl (racemic) | 128 µg/mL | 100 µM | 128 µg/mL | 256 µg/mL | 64 µg/mL | 32 µg/mL | 128 µg/mL | 64 µg/mL | 128 µg/mL | 128 µg/mL | 84.9%
16 | CCCCNCC(O)CN1CCN(c2cccc3c2CCC(=O)N3)CC1.Cl (racemic) | 256 µg/mL | 370 µM | 256 µg/mL | 256 µg/mL | 256 µg/mL | 64 µg/mL | 128 µg/mL | 256 µg/mL | 256 µg/mL | 256 µg/mL | 63.7%
17 | NC(=O)OC[C@H](O)[C@@H](O)[C@H](N)C(=O)N[C@H](C(=O)O)[C@H]1O[C@@H](n2cc(CO)c(=O)[nH]c2=O)[C@H](O)[C@@H]1O [POLYOXIN B] | 32 µg/mL (≈ 63.1 µM) | 180 µM |  |  |  | 32 µg/mL (≈ 63.1 µM) |  |  |  | 8 µg/mL (≈ 15.8 µM) | 85.1%
